Test results: patent publication US7691844B2, “Nonpeptide substituted spirobenzoazepines as vasopressin antagonists” (Ortho-McNeil Pharmaceutical, Inc., priority 2000, dated 2010)

How the values were obtained:
V1a = V1a (Homo sapiens, UniProt P37288); experiment: In-vitro receptor binding assay (3H-arginine-8-vasopressin), V1a
Experimental: (§1) (A) In-Vitro Binding Assay […] The reaction plates are allowed to sit at room temperature for one hour. The samples are filtered through Unifilter GF/C plates (presoaked in 0.3 polyethyleneimine). The plates are washed 5 times with cold physiological saline containing 0.05% Tween 20. After drying, the bottom of the filter plates are sealed and 0.025 ml of Microscint-20 is added to each filter. The top of the plate is sealed, and the plate is counted. Non-specific binding is determined by the addition of 1.25 μM […]-vasopressin in those wells. % Inh. is calculated as follows: […]

human V2 receptor = human V2 receptor (Homo sapiens, UniProt P30518); experiment: In-vitro receptor binding assay (3H-arginine-8-vasopressin), V2; conditions: for inhibition at 1 µM / inhibition at 0.1 µM / inhibition at 10 µM: read-out: Receptor Binding V2 (% Inh. @ concentration in μM)
Experimental: as §1

[1] = @ 0.1 μM, read-out: Receptor Binding V1a (% Inh. @ concentration in μM)

Sequence of human V2 receptor (P30518 whole entry): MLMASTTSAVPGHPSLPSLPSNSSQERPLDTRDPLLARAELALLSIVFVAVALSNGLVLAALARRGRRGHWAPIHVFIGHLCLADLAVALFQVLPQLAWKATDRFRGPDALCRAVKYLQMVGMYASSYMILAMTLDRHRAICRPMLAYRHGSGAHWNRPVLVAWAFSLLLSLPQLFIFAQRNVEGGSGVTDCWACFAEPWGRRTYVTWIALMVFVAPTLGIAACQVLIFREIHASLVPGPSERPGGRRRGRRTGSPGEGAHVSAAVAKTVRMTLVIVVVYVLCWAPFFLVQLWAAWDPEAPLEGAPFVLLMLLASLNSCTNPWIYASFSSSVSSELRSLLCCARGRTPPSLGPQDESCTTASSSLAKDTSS
Sequence of V1a (P37288 whole entry): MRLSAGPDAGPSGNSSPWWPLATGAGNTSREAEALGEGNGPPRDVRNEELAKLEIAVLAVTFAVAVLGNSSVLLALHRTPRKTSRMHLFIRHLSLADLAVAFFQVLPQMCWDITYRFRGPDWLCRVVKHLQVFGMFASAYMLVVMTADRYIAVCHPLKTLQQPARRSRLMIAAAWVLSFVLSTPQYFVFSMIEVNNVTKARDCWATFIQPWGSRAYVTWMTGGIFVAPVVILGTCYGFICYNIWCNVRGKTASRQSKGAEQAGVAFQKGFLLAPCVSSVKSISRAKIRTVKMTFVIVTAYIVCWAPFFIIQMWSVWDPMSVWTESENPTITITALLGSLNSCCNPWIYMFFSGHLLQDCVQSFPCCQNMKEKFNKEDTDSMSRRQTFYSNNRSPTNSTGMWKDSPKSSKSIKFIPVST

| inhibition at 1 µM (human V2 receptor; @ 1 μM) [%] | IC50 (V1a) [µM] | Structure (SMILES) | also measured |
| --- | --- | --- | --- |
| 11 | – | O=C(O)c1ccc(C(=O)N2CCC3(C=CCCC3)Cc3ccccc32)cc1 (stereo not drawn) [Compound 65, 4-(4-Carboxybenzoyl)-4-aza-[6,5]-spiro-[5,6]-benzododec-2′-ene] | inhibition at 1 µM (V1a; @ 1 μM, read-out: Receptor Binding V1a (% Inh. @ concentration in μM)): 8% |
| – | 0.013 | O=C(NCCN1CCCC1)C1=CC2(CC1)CCN(C(=O)c1ccc(NC(=O)c3ccccc3-c3ccccc3)cc1)c1ccccc1C2 (stereo not drawn) [Compound 135] | IC50 (human V2 receptor): 0.024 µM |
| – | 0.016 | Cc1ccc(F)cc1C(=O)Nc1ccc(C(=O)N2CCC3(C=C(C(=O)NCCCN4CCOCC4)CC3)Cc3ccccc32)cc1 (stereo not drawn) [Compound 158] | IC50 (human V2 receptor): 0.039 µM |
| 26 | 0.015 | CSc1cccc(C(=O)Nc2ccc(C(=O)N3CCC4(C=CCCC4)Cc4ccccc43)cc2)c1 (stereo not drawn) [Compound 93] | – |
| – | 0.011 | Cc1ccc(F)cc1C(=O)Nc1ccc(C(=O)N2CCC3(C=C(C(=O)NCCO)CC3)Cc3ccccc32)cc1 (stereo not drawn) [Compound 159] | IC50 (human V2 receptor): 0.047 µM |
| 3 | 0.51 | O=C(c1ccc(O)cc1)N1CCC2(C=CCCC2)Cc2ccccc21 (stereo not drawn) [Compound 78] | – |
| – | 0.024 | O=C(O)CNC(=O)C1=CC2(CC1)CCN(C(=O)c1ccc(NC(=O)c3ccccc3-c3ccccc3)cc1)c1ccccc1C2 (stereo not drawn) [Compound 10] | IC50 (human V2 receptor): 0.018 µM |
| 41 | 0.02 | O=C(Nc1ccccc1)c1ccc(C(=O)N2CCC3(C=CCCC3)Cc3ccccc32)cc1 (stereo not drawn) [Compound 82, 4-(4-Anilinocarbonylbenzoyl)-4-aza-[6,5]-spiro-[5,6]-benzododec-2′-ene] | – |
| – | – | Cc1ccc(F)cc1C(=O)Nc1ccc(C(=O)N2CCC3(C=C(C(=O)O)CC3)Cc3ccccc32)c(Cl)c1 (stereo not drawn) [Compound 143] | inhibition at 0.1 µM (V1a; [1]): 10%; inhibition at 0.1 µM (human V2 receptor; @ 0.1 μM): 67% |
| – | 0.013 | COC(=O)CNC(=O)C1=CC2(CC1)CCN(C(=O)c1ccc(NC(=O)c3ccccc3-c3ccccc3)cc1)c1ccccc1C2 (stereo not drawn) [Compound 12] | IC50 (human V2 receptor): 0.018 µM |
| – | 0.1 | Cc1ccc(F)cc1C(=O)Nc1ccc(C(=O)C2Cc3ccccc3CC3(C=CCCC3)C2)cc1 (stereo not drawn) [Compound 131] | Receptor Binding V2 (% Inh. @ concentration in μM) (human V2 receptor; @ 0.1 μM): 3% @ 0.1 |
| 31 | 0.066 | O=C(c1ccc(OCC2CC2)cc1)N1CCC2(C=CCCC2)Cc2ccccc21 (stereo not drawn) [Compound 181] | – |
| 13 | 0.11 | O=C(c1ccc(-n2cccn2)c(F)c1)N1CCC2(C=CCCC2)Cc2ccccc21 (stereo not drawn) [Compound 156, 4-(3-Fluoro-4-(pyrazol-1-yl)benzoyl)-4-aza-[6,5]-spiro-[5,6]-benzododec-2′-ene] | – |
| – | 0.014 | O=C(Nc1ccc(C(=O)N2CCC3(C=CCCC3)Cc3ccccc32)cc1)c1ccccc1F (single isomer, unassigned) [Compound 109] | IC50 (human V2 receptor): 0.3 µM |
| – | – | O=C(Nc1ccc(C(=O)C2Cc3ccccc3CC3(C=CCCC3)C2)cc1)c1ccccc1-c1ccccc1 (stereo not drawn) [Compound 129] | Receptor Binding V1a (% Inh. @ concentration in μM) (V1a; @ 0.1 μM): 30% @ 0.1; Receptor Binding V2 (% Inh. @ concentration in μM) (human V2 receptor; @ 0.1 μM): 9% @ 0.1 |
| 30 | 0.044 | CC(=O)c1ccn(-c2ccc(C(=O)N3CCC4(C=CCCC4)Cc4ccccc43)cc2F)c1 (stereo not drawn) [Compound 177] | – |
| 36 | 0.025 | O=C(c1ccc(-n2ccc(CO)c2)cc1)N1CCC2(C=CCCC2)Cc2ccccc21 (stereo not drawn) [Compound 154] | – |
| – | 0.055 | COc1cc(NC(=O)c2cc(F)ccc2C)ccc1C(=O)N1CCC2(C=C(C=O)CC2)Cc2ccccc21 (stereo not drawn) [Compound 170] | IC50 (human V2 receptor): 0.21 µM |
| – | 0.016 | O=CC1=CC2(CC1)CCN(C(=O)c1ccc(NC(=O)c3ccccc3-c3ccccc3)cc1)c1ccccc1C2 (stereo not drawn) [Compound 2, 4-(2-Phenylbenzoyl-4-aminobenzoyl)-3′-(formyl)-4-aza-[6,4]-spiro-[5,6]-benzoundec-2′-ene] | IC50 (human V2 receptor): 0.029 µM |
| – | – | Cc1ccc(F)cc1C(=O)Nc1ccc(C(=O)N2CCC3(C=C(CO)CC3)Cc3ccccc32)c(Cl)c1 (stereo not drawn) [Compound 137] | inhibition at 0.1 µM (V1a; [1]): 53%; inhibition at 0.1 µM (human V2 receptor; @ 0.1 μM): 66% |
| 0 | 1 | CCCCCCCOc1ccc(C(=O)N2CCC3(C=CCCC3)Cc3ccccc32)cc1 (stereo not drawn) [Compound 76] | – |
| 0 | 0.55 | COc1ccc(C(=O)N2Cc3ccccc3CC3(C=CCCC3)C2)cc1OC (stereo not drawn) [Compound 153] | – |
| – | 0.09 | Cc1ccc(-c2ccccc2C(=O)Nc2ccc(C(=O)N3CCC4(C=CCCC4)Cc4ccccc43)cc2)cc1 (stereo not drawn) [Compound 114] | IC50 (human V2 receptor): 0.095 µM |
| – | 0.19 | COc1ccc(C(=O)N2CCC3(C=CCCC3)Cc3ccccc32)c(OC)c1 (stereo not drawn) [Compound 74] | Receptor Binding V2 (% Inh. @ concentration in μM) (human V2 receptor; @ 1 μM): 27% @ 1 |
| – | – | COC(=O)C1=CC2(CC1)CCN(C(=O)c1ccc(N)cc1)c1ccccc1C2 (stereo not drawn) [Compound 134] | inhibition at 0.1 µM (V1a; [1]): 21%; inhibition at 0.1 µM (human V2 receptor; @ 0.1 μM): 16% |
| – | 10 | Nc1ccc(C(=O)N2CCC3(CCCCC3)Cc3ccccc32)cc1 [Compound 25] | inhibition at 10 µM (human V2 receptor; @ 10 μM): 7% |

| inhibition at 1 µM (human V2 receptor; @ 1 μM) [%] | IC50 (V1a) [µM] | Structure (SMILES) | also measured |
| --- | --- | --- | --- |
| 1 | 0.07 | COc1ccc(C(=O)N2CCC3(C=CCCC3)Cc3ccccc32)cc1OC (stereo not drawn) [Compound 75] | – |
| 10 | 0.065 | CC(C)COc1ccc(C(=O)N2CCC3(C=CCCC3)Cc3ccccc32)cc1 (stereo not drawn) [Compound 86] | – |
| – | 0.38 | O=C(c1ccc([N+](=O)[O-])cc1)N1CCC2(C=CCCC2)Cc2ccccc21 (stereo not drawn) [Compound 49, 4-(4-Nitrobenzoyl)-4-aza-[6,5]-spiro-[5,6]-benzododec-2′-ene] | inhibition at 10 µM (human V2 receptor; @ 10 μM): 30% |
| – | 0.8 | Cc1ccc(F)cc1C(=O)Nc1ccc(C(=O)N2CCC3(C=CCCC3)Cc3ccccc32)c(Cl)c1 (stereo not drawn) [Compound 111] | IC50 (human V2 receptor): 0.045 µM |
| – | 1.4 | O=C(c1ccncc1)N1CCC2(C=CCCC2)Cc2ccccc21 (stereo not drawn) [Compound 35] | IC50 (human V2 receptor): > 25 µM |
| – | – | O=C(Nc1ccc(C(=O)N2CCC3(C=CCCC3)Cc3ccccc32)cc1)c1ccc(-c2ccccc2)cc1 (stereo not drawn) [Compound 84] | Receptor Binding V1a (% Inh. @ concentration in μM) (V1a; @ 1 μM): 35% @ 1; Receptor Binding V2 (% Inh. @ concentration in μM) (human V2 receptor; @ 1 μM): 2% @ 1 |
| – | – | CNCC1=CC2(CC1)CCN(C(=O)c1ccc(NC(=O)c3cc(F)ccc3C)cc1Cl)c1ccccc1C2 (stereo not drawn) [Compound 139] | inhibition at 0.1 µM (V1a; [1]): 0%; inhibition at 0.1 µM (human V2 receptor; @ 0.1 μM): 17% |
| – | – | Cc1ccc(F)cc1C(=O)Nc1ccc(C(=O)N2CCC3(C=C(CN4CCN(CCN5CCOCC5)CC4)CC3)Cc3ccccc32)c(Cl)c1 (stereo not drawn) [Compound 141] | inhibition at 0.1 µM (V1a; [1]): 44%; IC50 (human V2 receptor): 0.056 µM |
| – | 5.6 | O=C(c1cccc(Br)c1)N1CCC2(C=CCCC2)Cc2ccccc21 (stereo not drawn) [Compound 51] | inhibition at 10 µM (human V2 receptor; @ 10 μM): 33% |
| – | – | Cc1ccc(F)cc1C(=O)Nc1ccc(C(=O)N2CCC3(C=C(CN4CCN(c5ccncc5)CC4)CC3)Cc3ccccc32)c(Cl)c1 (stereo not drawn) [Compound 142] | inhibition at 0.1 µM (V1a; [1]): 25%; inhibition at 0.1 µM (human V2 receptor; @ 0.1 μM): 69% |
| – | 0.021 | O=C(Nc1ccc(C(=O)N2CCC3(CCCCC3=O)Cc3ccccc32)cc1)c1ccccc1-c1ccccc1 (stereo not drawn) [Compound 31] | IC50 (human V2 receptor): 0.054 µM |
| 0 | – | CC(C)CCN1CCC(Oc2ccc(C(=O)N3CCC4(C=CCCC4)Cc4ccccc43)cc2F)CC1 (stereo not drawn) [Compound 173] | inhibition at 0.1 µM (V1a; [1]): 0% |
| – | 0.25 | Cc1ccccc1C(=O)Nc1ccc(C(=O)N2CCC3(CCCCC3)Cc3ccccc32)cc1 [Compound 28] | Receptor Binding V2 (% Inh. @ concentration in μM) (human V2 receptor; @ 10 μM): 1% @ 10 |
| – | 0.042 | O=C(Nc1ccc(C(=O)N2Cc3ccccc3CC3(C=CCCC3)C2)cc1)c1ccccc1F (stereo not drawn) [Compound 128, 4-(2-Fluorobenzoyl-4-aminobenzoyl)-3-aza-[6,5]-spiro-[5,6]-benzododec-2′-ene] | inhibition at 0.1 µM (human V2 receptor; @ 0.1 μM): 33% |
| – | 3.5 | O=C(c1cccc(Cl)c1)N1CCC2(C=CCCC2)Cc2ccccc21 (stereo not drawn) [Compound 46] | inhibition at 10 µM (human V2 receptor; @ 10 μM): 33% |
| – | – | O=C(O)C1=CC2(CC1)CCN(C(=O)c1ccc(NC(=O)c3ccccc3F)cc1)c1ccccc1C2 (stereo not drawn) [Compound 7, 4-(2-Fluorobenzoyl-4-aminobenzoyl)-3′-(carboxyl)-4-aza-[6,4]-spiro-[5,6]-benzoundec-2′-ene] | Receptor Binding V1a (% Inh. @ concentration in μM) (V1a; @ 0.1 μM): 43% @ 0.1; Receptor Binding V2 (% Inh. @ concentration in μM) (human V2 receptor; @ 0.1 μM): 15% @ 0.1 |
| 34 | 0.034 | COc1cc(-n2ccc(CO)c2)ccc1C(=O)N1CCC2(C=C(C(=O)NCCN(C)C)CC2)Cc2ccccc21 (stereo not drawn) [Compound 196] | – |
| – | 0.01 | Cc1ccc(F)cc1C(=O)Nc1ccc(C(=O)N2CCC3(C=C(C(=O)NCCN4CCCC4)CC3)Cc3ccccc32)cc1 (stereo not drawn) [Compound 161] | IC50 (human V2 receptor): 0.072 µM |
| 0 | 5.4 | CN(C)CCNC(=O)C1=C[C@@]2(CC1)CCN(C(=O)c1ccc(N)cc1)c1ccccc1C2 [Compound 192] | – |
| – | – | O=C(Nc1ccccc1)N1CCC2(C=CCCC2)Cc2ccccc21 (stereo not drawn) [Compound 61] | Receptor Binding V1a (% Inh. @ concentration in μM) (V1a; @ 1 μM): 11% @ 1; Receptor Binding V2 (% Inh. @ concentration in μM) (human V2 receptor; @ 1 μM): 3% @ 1 |
| – | 1.2 | CN(C)CCNC(=O)C1=CC2(CC1)CCN(C(=O)c1ccc(N)cc1)c1ccccc1C2 (stereo not drawn) [Compound 191] | Receptor Binding V2 (% Inh. @ concentration in μM) (human V2 receptor; @ 1 μM): 15% @ 1 |
| 15 | 0.096 | CC(C)CCOc1ccc(C(=O)N2CCC3(C=CCCC3)Cc3ccccc32)cc1 (stereo not drawn) [Compound 179] | – |
| – | – | O=C(c1ccccc1-c1ccccc1)N1CCC2(C=CCCC2)Cc2ccccc21 (stereo not drawn) [Compound 64] | Receptor Binding V1a (% Inh. @ concentration in μM) (V1a; @ 1 μM): 1% @ 1; Receptor Binding V2 (% Inh. @ concentration in μM) (human V2 receptor; @ 1 μM): 12% @ 1 |
| – | – | O=C(Nc1ccc(F)cc1)N1CCC2(C=CCCC2)Cc2ccccc21 (stereo not drawn) [Compound 62] | Receptor Binding V1a (% Inh. @ concentration in μM) (V1a; @ 1 μM): 5% @ 1; Receptor Binding V2 (% Inh. @ concentration in μM) (human V2 receptor; @ 1 μM): 4% @ 1 |
| 2 | 0.13 | O=C(c1ccc(-n2cccn2)c(-n2cccn2)c1)N1CCC2(C=CCCC2)Cc2ccccc21 (stereo not drawn) [Compound 155] | – |
